Reference: US12209079B2 (GENERAL INCORPORATED ASSOCIATION PHARMA VALLEY PROJECT …, priority 2017, dated 2025)
Counter-ions that a name gives are not always drawn.

Experiments:
[1] = molecular target: rhIDO (recombinant human IDO) (Homo sapiens, UniProt P14902); assay: Enzyme assay using rhIDO (rate of kynurenine production); assay type: biochemical; details: 2 h, read-out: rhIDO-mediated kynurenine production; for remaining activity at 10 µM: final concentration of the compound 10 μM, rate relative to reaction without compound
rhIDO (recombinant human IDO), sequence (P14902 whole entry): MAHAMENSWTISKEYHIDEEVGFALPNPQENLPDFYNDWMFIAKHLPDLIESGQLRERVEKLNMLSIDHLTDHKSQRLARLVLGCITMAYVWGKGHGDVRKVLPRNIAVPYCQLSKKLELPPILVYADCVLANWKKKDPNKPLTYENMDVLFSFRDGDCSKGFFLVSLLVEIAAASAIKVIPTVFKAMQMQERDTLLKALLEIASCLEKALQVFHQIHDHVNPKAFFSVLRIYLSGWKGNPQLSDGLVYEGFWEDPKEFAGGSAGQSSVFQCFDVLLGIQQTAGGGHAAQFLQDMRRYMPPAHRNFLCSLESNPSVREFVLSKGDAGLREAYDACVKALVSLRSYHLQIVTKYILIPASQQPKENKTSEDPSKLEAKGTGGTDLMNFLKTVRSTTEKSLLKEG
Method in brief: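 Kynurenine formation, expressed as % of uncompounded reaction after background subtraction, was read by absorbance at 490 nm following TCA stop, 50 °C hydrolysis and Ehrlich-type p-dimethylbenzaldehyde staining. Recombinant human IDO with ascorbate/methylene blue/catalase was pre-exposed to compound 10 min, then reacted 120 min at 37 °C after adding 2 mM tryptophan stock.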

[2] = molecular target: rhTDO (recombinant human TDO) (Homo sapiens, UniProt P48775); assay: Enzyme assay using rhTDO (rate of kynurenine production); assay type: biochemical; details: 2 h; final concentration of the compound 10 μM; rate relative to reaction without compound; read-out: rhTDO-mediated kynurenine production
rhTDO (recombinant human TDO), sequence (P48775 whole entry): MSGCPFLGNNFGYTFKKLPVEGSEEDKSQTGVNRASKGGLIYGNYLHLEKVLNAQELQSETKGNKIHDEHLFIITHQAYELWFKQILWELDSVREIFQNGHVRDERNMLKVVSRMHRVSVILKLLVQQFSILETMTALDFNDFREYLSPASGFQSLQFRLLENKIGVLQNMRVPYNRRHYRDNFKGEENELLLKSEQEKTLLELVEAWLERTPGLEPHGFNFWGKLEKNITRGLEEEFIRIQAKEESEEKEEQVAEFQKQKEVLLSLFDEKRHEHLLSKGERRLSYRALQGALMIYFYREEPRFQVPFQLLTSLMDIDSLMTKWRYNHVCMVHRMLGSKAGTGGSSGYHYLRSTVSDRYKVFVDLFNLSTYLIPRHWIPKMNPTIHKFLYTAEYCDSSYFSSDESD
Method in brief: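 Kynurenine output, as percent of untreated control after background subtraction, read at 490 nm with p-dimethylbenzaldehyde following TCA quench and 15 min heating at 50 °C. Reaction: rhTDO with compound, 10 min preincubation then 120 min at 37 °C, started by 20 mM tryptophan stock, in phosphate/ascorbate/methylene blue/catalase.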

IDO in A431 cells = molecular target: T1, IDO in A431 cells (Homo sapiens, UniProt P14902); assay: IDO cell-based assay, kynurenine production in IFN-γ stimulated A431 cells; details: A-431, 24 h; final concentration of the compound 10 μM; rate relative to culture without compound
T1 construct: endogenous in cells; host or cells: A431 cells, IFN-γ stimulated
T1 sequence (P14902 whole entry): as the sequence (P14902 whole entry) above
Method in brief: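 Kynurenine output was read by absorbance at 460 nm after p-dimethylbenzaldehyde/trichloroacetic acid reagent, background-corrected, and given as % of untreated wells. Before the read, cells in 178 μM L-tryptophan medium had 1 h compound preincubation, then 24 h IFN-γ stimulation (added as 100 ng/mL dilution).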

TDO in A172 cells = molecular target: T2, TDO in A172 cells (Homo sapiens, UniProt P48775); assay: TDO cell-based assay, kynurenine production in A172 cells; details: A 172; final concentration of the compound 10 μM; rate relative to culture without compound
T2 construct: endogenous in cells; host or cells: A172 cells
T2 sequence (P48775 whole entry): as the sequence (P48775 whole entry) above
Method in brief: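 A172 cells were preincubated with compound for 1 h, then given L-tryptophan (final 524 μM) for 24 h at 37 °C. Kynurenine was read at 460 nm after p-dimethylbenzaldehyde/TCA reagent, background-subtracted, and expressed as % of no-compound production.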

| remaining activity at 3 µM ([1]; final concentration of the compound 3 μM (data with *)) [%] | Compound | remaining activity at 10 µM [1] [%] | remaining activity at 10 µM [2] [%] | remaining activity at 10 µM (IDO in A431 cells) [%] | remaining activity at 10 µM (TDO in A172 cells) [%] |
| --- | --- | --- | --- | --- | --- |
| – | Cc1ccc(CNC(=O)c2ccc(Br)cc2CSC(=N)N)cc1 [Compound 90, 5-Bromo-2-((4-methylbenzyl)carbamoyl)benzyl carbamimidothioate hydrobromide] | 90 | 45 | 96 | 51 |
| – | N=C(N)SCc1cc(Br)ccc1C(=O)NCC1CC1 [Compound 93, 5-Bromo-2-((cyclopropylmethyl)carbamoyl)benzyl carbamimidothioate hydrobromide] | 103 | 53 | 124 | 49 |
| – | N=C(N)[Se]Cc1ccccc1C[Se]C(=N)N [Compound 108, 1,2-Phenylenebis(methylene) dicarbamimidoselenoate dihydrobromide] | 51 | 55 | 5 | 41 |
| – | N#Cc1ccc(CNC(=O)c2ncccc2CSC(=N)N)cc1 [Compound 99, (2-((4-Cyanobenzyl)carbamoyl)pyridin-3-yl)methyl carbamimidothioate hydrobromide] | 96 | 75 | 102 | 106 |
| – | Clc1ccc(CN2CN=C(SCc3cc(Cl)c(Cl)cc3CSC3=NCN(Cc4ccc(Cl)c(Cl)c4)CN3)NC2)cc1Cl [Compound 56, 6,6′-(((4,5-Dichloro-1,2-phenylene)bis(methylene))bis(sulfanediyl))bis(3-(3,4-dichlorobenzyl)-1,2,3,4-tetrahydro-1,3,5-triazine)] | 41 | 35 | 4 | 2 |
| – | Clc1ccc(CCN2CN=C(SCc3ccccc3CSC3=NCN(CCc4ccc(Cl)c(Cl)c4)CN3)NC2)cc1Cl [Compound 22, 1,2-bis(((5-(3,4-dichlorophenethyl)-1,4,5,6-tetrahydro-1,3,5-triazin-2-yl)thio)methyl)benzene] | 20 | 21 | 6 | -1 |
| – | N#Cc1ccc(CNC(=O)Cc2ccccc2CSC(=N)N)cc1 [Compound 67, 2-(2-((4-Cyanobenzyl)amino)-2-oxoethyl)benzyl carbamimidothioate hydrobromide] | 39 | 46 | 36 | 64 |
| – | N=C(N)SCc1ccccc1CC(=O)NCC1CC1 [Compound 71, 2-(2-((Cyclopropylmethyl)amino)-2-oxoethyl)benzyl carbamimidothioate hydrobromide] | 87 | 67 | 96 | 77 |
| – | CNC(=O)c1ccc(C#N)cc1CSC(=N)N [Compound 77, 5-Cyano-2-(methylcarbamoyl)benzyl carbamimidothioate hydrobromide] | 74 | 101 | 103 | 89 |
| – | FC(F)(F)c1ccc(CCN2CN=C(SCc3ccc(Br)cc3CSC3=NCN(CCc4ccc(C(F)(F)F)cc4)CN3)NC2)cc1 [Compound 141, 6,6′-(((4-Bromo-1,2-phenylene)bis(methylene))bis(sulfanediyl))bis(3-(4-(trifluoromethyl)phenethyl)-1,2,3,4-tetrahydro-1,3,5-triazine)] | 21 | 14 | 5 | 11 |
| – | N=C(N)SCc1nc2ccccc2nc1CSC(=N)N [Compound 5, quinoxaline-2,3-dilylbis(methylene) dicarbamimidothioate dihydrobromide] | 69 | 84 | 85 | 113 |
| – | N=C(N)SCc1cccnc1CSC(=N)N [Compound 34, Pyridine-2,3-diylbis(methylene) dicarbamimidothioate dihydrobromide] | 25 | 27 | 29 | 47 |
| – | Clc1ccc(CCN2CN=C(SCc3ccccc3CSC3=NCN(CCc4ccc(Cl)cc4)CN3)NC2)cc1 [Compound 17, 1,2-bis(((5-(4-chlorophenethyl)-1,4,5,6-tetrahydro-1,3,5-triazin-2-yl)thio)methyl)benzene] | 30 | 25 | 8 | 0 |
| 29 | Clc1cc(CSC2=NCN(CC3CC3)CN2)c(CSC2=NCN(CC3CC3)CN2)cc1Cl [Compound 73, 6,6′-(((4,5-Dichloro-1,2-phenylene)bis(methylene))bis(sulfanediyl))bis(3-(cyclopropylmethyl)-1,2,3,4-tetrahydro-1,3,5-triazine)] | – | 4 | 4 | -3 |
| – | FC(F)(F)c1ccc(CN2CN=C(SCc3ccccc3CSC3=NCN(Cc4ccc(C(F)(F)F)cc4)CN3)NC2)cc1 [Compound 42, 1,2-Bis(((5-(4-(trifluoromethyl)benzyl)-1,4,5,6-tetrahydro-1,3,5-triazin-2-yl)thio)methyl)benzene] | 68 | 41 | 6 | 2 |
| – | Clc1ccccc1CCN1CN=C(SCc2ccccc2CSC2=NCN(CCc3ccccc3Cl)CN2)NC1 [Compound 28, 1,2-bis(((5-(2-chlorophenethyl)-1,4,5,6-tetrahydro-1,3,5-triazin-2-yl)thio)methyl)benzene] | 40 | 53 | 7 | 3 |
| – | COc1cccc(CNC(=O)c2ccc(Br)cc2CSC(=N)N)c1 [Compound 105, 5-Bromo-2-((3-methoxybenzyl)carbamoyl)benzyl carbamimidothioate hydrobromide] | 98 | 68 | 107 | 42 |
| – | c1csc(CCN2CN=C(SCc3ccccc3CSC3=NCN(CCc4cccs4)CN3)NC2)c1 [Compound 40, 1,2-Bis (((5-(2-(thiophen-2-yl)ethyl)-1,4,5,6-tetrahydro-1,3,5-triazin-2-yl)thio)methyl)benzene] | 34 | 29 | 9 | 1 |
| – | Fc1ccc(CN2CN=C(SCc3ccccc3CSC3=NCN(Cc4ccc(F)c(Cl)c4)CN3)NC2)cc1Cl [Compound 145, 1,2-Bis(((5-(3-Chloro-4-fluorobenzyl)-1,4,5,6-tetrahydro-1,3,5-triazin-2-yl)thio)methyl)benzene] | 69 | 40 | 18 | 12 |
| – | Clc1ccc(Cl)c(CN2CN=C(SCc3ccccc3CSC3=NCN(Cc4cc(Cl)ccc4Cl)CN3)NC2)c1 [Compound 18, 1,2-bis(((5-(2,5-dichlorobenzyl)-1,4,5,6-tetrahydro-1,3,5-triazin-2-yl)thio)methyl)benzene] | 23 | 27 | 7 | -1 |
| – | N/C(=N\c1ccc(F)c(Cl)c1)SCc1cc(Br)ccc1C(=O)NCc1ccc(F)cc1 [Compound 88, 5-Bromo-2-((4-fluorobenzyl)carbamoyl)benzyl (E)-N′-(3-chloro-4-fluorophenyl)carbamimidothioate hydrobromide] | 82 | 92 | 64 | 28 |
| – | N#Cc1ccc(CNC(=O)c2ncccc2CS/C(N)=N/c2ccc(F)c(Cl)c2)cc1 [Compound 101, (2-((4-Cyanobenzyl)carbamoyl)pyridin-3-yl)methyl (E)-N′-(3-chloro-4-fluorophenyl)carbamimidothioate hydrobromide] | 78 | 84 | 61 | 70 |
| – | CNC(=O)Cc1ccccc1CS/C(N)=N/c1ccc(F)c(Cl)c1 [Compound 80, 2-(2-(Methylamino)-2-oxoethyl)benzyl (E)-N′-(3-chloro-4-fluorophenyl)carbamimidothioate hydrobromide] | 97 | 38 | 66 | 45 |
